This test concerns ChAT. Description: ChAT immunoreactivity (fluorescence intensity) in cholinergic interneurons. Also noted: species or system mice. Conditions: mouse, in vivo. How it is done:
Immunohistochemical analysis was performed with commonly known procedures. Mice were transcardially perfused with ice-cold 4% paraformaldehyde in PBS 45 minutes after challenge with L-DOPA or DOPA-ranitidine formulations. The brain was dissected out, post-fixed in 4% PFA overnight at 4° C., and cryoprotected using 30% sucrose in PBS. Cryoprotected brains were stored at −80° C. For TH immunostaining 30 μm coronal sections were taken around both CPu and substantia nigra, to examine dopaminergic denervation at the level of striatum and neuronal cell body loss at the level of substantia nigra. For pERK, ChAT, FoxP and AFos B expression, only coronal sections at the level of striatum was used. Free-floating coronal sections were blocked in blocking buffer (PBS with 2% BSA, 0.3% TritonX-100) for 1 hr at room temperature with gentle rocking. Sections were then transferred to incubation solution (PBS with 1% BSA, 0.03% TritonX-100) and the respective primary antibody as shown in table 1 and incubated at 4° C. for 24-48 hrs with gentle shaking. The sections were mounted with fluorescein or DAPI containing mounting media and serial z stack images were taken using Zeiss laser scanning confocal microscope LSM 800 at Stanford Cell Sciences Imaging facility. […]

Consider `N[C@@H](Cc1ccc(O)c(O)c1)C(=O)O` [L-DOPA, L-3,4-dihydroxyphenylalanine], for which the “ChAT immunoreactivity (FI), lesioned side versus intact side” value is listed as “slightly lower on the lesioned side than the intact side”.

Source of the values: patent US20190054051A1, “DOPA Formulations for Treatments of Parkinson's Disease” (The Board of Trustees of the Leland Stanford Junior …, priority 2017, published 2019).
